Molecular target: T1, P2X7 (UniProt Q99572)
T1 sequence (Q99572 1-595): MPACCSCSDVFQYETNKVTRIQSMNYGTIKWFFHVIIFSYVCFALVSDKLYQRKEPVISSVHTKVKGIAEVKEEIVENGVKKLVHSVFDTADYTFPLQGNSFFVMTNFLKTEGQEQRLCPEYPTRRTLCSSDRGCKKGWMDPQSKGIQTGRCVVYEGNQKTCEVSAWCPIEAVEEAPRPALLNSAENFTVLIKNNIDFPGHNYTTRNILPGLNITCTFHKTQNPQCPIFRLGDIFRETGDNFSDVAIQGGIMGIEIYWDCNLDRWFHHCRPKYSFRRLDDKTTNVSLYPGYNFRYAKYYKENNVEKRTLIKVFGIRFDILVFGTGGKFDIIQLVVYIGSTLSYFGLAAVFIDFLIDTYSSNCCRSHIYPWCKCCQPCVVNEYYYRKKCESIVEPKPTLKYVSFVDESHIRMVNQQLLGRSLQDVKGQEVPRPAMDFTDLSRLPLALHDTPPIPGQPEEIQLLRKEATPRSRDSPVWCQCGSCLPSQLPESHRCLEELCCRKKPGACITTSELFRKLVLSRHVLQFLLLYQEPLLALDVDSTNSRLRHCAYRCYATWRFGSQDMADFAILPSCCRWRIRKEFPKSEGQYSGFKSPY
Assay: P2X7 pKi of Table 1
Assay type: cell-based
Experimental: Intracellular Calcium Flux (FLIPR) Assay
Compound and Reagent Preparation
Stock solutions of compounds were prepared from powders as a 10 mM DMSO stock solution. These solutions were stored at RT during the two week period of these experiments to prevent freeze-thaw of the DMSO stocks. The DMSO stocks were added to the appropriate assay buffer at a concentration of 10 μM, and then diluted serially to the final concentrations that were tested. […] The aqueous solutions of compounds as well as ATP (Sigma A7699) and BzATP (Sigma B6396) were prepared fresh for each day of experiment.
1321N1 cells stably expressing the full length human P2X7 gene (1321N1-hP2X7) and HEK293 cells stably expressing the full length rat P2X7 gene (HEK293-rP2X7) were obtained from the Roche Cell Culture Facility. 1321N1-hP2X7 cells were grown in Dulbecco's Modified Eagle's Medium (DMEM) high glucose supplemented with 10% FBS and 250 μg/mL G418. HEK293-rP2X7 cells were grown in DMEM/F-12 supplemented with 10% FBS, 1 mM CaCl2, 2 mM MgCl2, 2 mM L-Glutamine and 500 μg/ml G418. Cells were split such that they never became >70% confluent.
Intracellular Calcium Flux (FLIPR)
On the day prior to the experiment, 1321N1-hP2X7 or HEK293-rP2X7 cells were released into suspension with calcium-free PBS+Versene and washed by centrifugation with calcium-free PBS to remove the Versene. Cells were resuspended in growth medium at a density of 2.5×10^5 cells/mL and seeded into black walled, clear bottom 96 well plates (50,000 cells/well) approximately 18 hr prior to intracellular calcium flux experiments.
On the day of the experiment, plates were washed with FLIPR buffer (calcium- and magnesium-free Hank's Balanced Salt Solution (HBSS) supplemented with 10 mM Hepes, 2.5 mM probenecid and 2 mM calcium chloride) using a BIO-TEK 96 channel plate washer and incubated with […] fluo-3 dye at 37° C. for one hr. The dye was then removed by plate washing and the cells were allowed to equilibrate for 20 min at room temperature with antagonist or vehicle (FLIPR buffer). Agonist (100 μM BzATP final concentration for hP2X7; 5 μM BzATP final concentration or rP2X7) was added online with the FLIPR and fluorescence measurements made at 1 sec intervals for 60 sec followed by 3 sec intervals for a further 4 min (5 min total). A final addition of 5 μM ionomycin was made and the maximal BzATP-evoked fluorescence normalized to the maximal ionomycin-evoked fluorescence.

Structure (SMILES) | pKi
COc1cc(Br)c(NC(=O)C2=CNC(=O)C[C@H]2c2cccc(F)c2)cc1OC [Compound 30, (S)-4-(3-Fluoro-phenyl)-6-oxo-1,4,5,6-tetrahydro-pyridine-3-carboxylic acid(2-bromo-4,5-dimethoxy-phenyl)-amide] | 8.045
COc1cc(Br)c(NC(=O)C2=CN(C)C(=O)CC2c2ccc(F)cc2)cc1OC (stereo not shown) [Compound 31, 4-(4-Fluoro-phenyl)-1-methyl-6-oxo-1,4,5,6-tetrahydro-pyridine-3-carboxylic acid(2-bromo-4,5-dimethoxy-phenyl)-amide] | 6.525
COc1cc(NC(=O)C2=CNC(=O)CC2c2cccc(F)c2)c(Br)cc1F (stereo not shown) [Compound 35, 4-(3-Fluoro-phenyl)-6-oxo-1,4,5,6-tetrahydro-pyridine-3-carboxylic acid(2-bromo-4-fluoro-5-methoxy-phenyl)-amide] | 6.65
COc1cc(Br)c(NC(=O)C2=CNC(=O)C[C@@H]2c2ccc(F)cc2)cc1OC [Compound 39, (R)-4-(4-Fluoro-phenyl)-6-oxo-1,4,5,6-tetrahydro-pyridine-3-carboxylic acid(2-bromo-4,5-dimethoxy-phenyl)-amide] | 6.99
COc1cc(Br)c(NC(=O)C2=CN(C)C(=O)C[C@H]2c2ccc(F)cc2)cc1OC [Compound 44, (S)-4-(4-Fluoro-phenyl)-1-methyl-6-oxo-1,4,5,6-tetrahydro-pyridine-3-carboxylic acid(2-bromo-4,5-dimethoxy-phenyl)-amide] | 5.875
COc1cc(C)c(NC(=O)C2=CNC(=O)C[C@H]2c2cccc(F)c2)cc1OC [Compound 48, (S)-4-(3-Fluoro-phenyl)-6-oxo-1,4,5,6-tetrahydro-pyridine-3-carboxylic acid (4,5-dimethoxy-2-methyl-phenyl)-amide] | 7.7225
Cc1ccc(C(F)(F)F)cc1NC(=O)C1=CNC(=O)CC1c1cccc(F)c1 (stereo not shown) [Compound 50, 4-(3-Fluoro-phenyl)-6-oxo-1,4,5,6-tetrahydro-pyridine-3-carboxylic acid(2-methyl-5-trifluoromethyl-phenyl)-amide] | 6.89
CCN(CC)S(=O)(=O)c1ccc(Cl)c(NC(=O)C2=CNC(=O)CC2c2cccc(F)c2)c1 (stereo not shown) [Compound 52, 4-(3-Fluoro-phenyl)-6-oxo-1,4,5,6-tetrahydro-pyridine-3-carboxylic acid(2-chloro-5-diethylsulfamoyl-phenyl)-amide] | 6.02
COc1cc(NC(=O)C2=CNC(=O)CC2c2ccc(F)cc2)c(C)cc1F (stereo not shown) [Compound 54, 4-(4-Fluoro-phenyl)-6-oxo-1,4,5,6-tetrahydro-pyridine-3-carboxylic acid(4-fluoro-5-methoxy-2-methyl-phenyl)-amide] | 7.02
Cc1ccc(C)c(NC(=O)C2=CNC(=O)C[C@H]2c2ccc(F)cc2)c1 [Compound 56, (S)-4-(4-Fluoro-phenyl)-6-oxo-1,4,5,6-tetrahydro-pyridine-3-carboxylic acid (2,5-dimethyl-phenyl)-amide] | 6.56

The next lines start with the values.

pKi | Structure (SMILES)
7.98 | COc1cc(C)c(NC(=O)C2=CNC(=O)CC2c2ccc(F)cc2)cc1OC (stereo not shown) [Compound 32, 4-(4-Fluoro-phenyl)-6-oxo-1,4,5,6-tetrahydro-pyridine-3-carboxylic acid(4,5-dimethoxy-2-methyl-phenyl)-amide]
7.195 | COc1cc(NC(=O)C2=CNC(=O)C[C@H]2c2cccc(F)c2)c(Br)cc1C [Compound 33, (S)-4-(3-Fluoro-phenyl)-6-oxo-1,4,5,6-tetrahydro-pyridine-3-carboxylic acid(2-bromo-5-methoxy-4-methyl-phenyl)-amide]
6.9783 | COc1cc(Br)c(NC(=O)C2=CNC(=O)C[C@@H]2c2cccc(F)c2)cc1OC [Compound 34, (R)-4-(3-Fluoro-phenyl)-6-oxo-1,4,5,6-tetrahydro-pyridine-3-carboxylic acid(2-bromo-4,5-dimethoxy-phenyl)-amide]
6.93 | Cc1ccc(C)c(NC(=O)C2=CNC(=O)CC2c2ccc(F)cc2)c1 (stereo not shown) [Compound 36, 4-(4-Fluoro-phenyl)-6-oxo-1,4,5,6-tetrahydro-pyridine-3-carboxylic acid(2,5-dimethyl-phenyl)-amide]
7.12 | Cc1cccc(NC(=O)C2=CNC(=O)CC2c2ccc(F)cc2)c1C (stereo not shown) [Compound 37, 4-(4-Fluoro-phenyl)-6-oxo-1,4,5,6-tetrahydro-pyridine-3-carboxylic acid(2,3-dimethyl-phenyl)-amide]
6.87 | Cc1ccc(Br)c(NC(=O)C2=CNC(=O)CC2c2ccc(F)cc2)c1 (stereo not shown) [Compound 38, 4-(4-Fluoro-phenyl)-6-oxo-1,4,5,6-tetrahydro-pyridine-3-carboxylic acid(2-bromo-5-methyl-phenyl)-amide]
7.895 | COc1cc(Br)c(NC(=O)C2=CNC(=O)C[C@H]2c2ccc(F)cc2)cc1OC [Compound 40, (S)-4-(4-Fluoro-phenyl)-6-oxo-1,4,5,6-tetrahydro-pyridine-3-carboxylic acid(2-bromo-4,5-dimethoxy-phenyl)-amide]
7.225 | COc1cc(C)c(NC(=O)C2=CNC(=O)C[C@@H]2c2ccc(F)cc2)cc1OC [Compound 41, (R)-4-(4-Fluoro-phenyl)-6-oxo-1,4,5,6-tetrahydro-pyridine-3-carboxylic acid (4,5-dimethoxy-2-methyl-phenyl)-amide]
7.993 | COc1cc(C)c(NC(=O)C2=CNC(=O)C[C@H]2c2ccc(F)cc2)cc1OC [Compound 42, (S)-4-(4-Fluoro-phenyl)-6-oxo-1,4,5,6-tetrahydro-pyridine-3-carboxylic acid (4,5-dimethoxy-2-methyl-phenyl)-amide]
6.765 | COc1ccc(C)c(NC(=O)C2=CNC(=O)C[C@@H]2c2cccc(F)c2)c1 [Compound 45, (R)-4-(3-Fluoro-phenyl)-6-oxo-1,4,5,6-tetrahydro-pyridine-3-carboxylic acid(5-methoxy-2-methyl-phenyl)-amide]
7.695 | COc1ccc(C)c(NC(=O)C2=CNC(=O)C[C@H]2c2cccc(F)c2)c1 [Compound 46, (S)-4-(3-Fluoro-phenyl)-6-oxo-1,4,5,6-tetrahydro-pyridine-3-carboxylic acid(5-methoxy-2-methyl-phenyl)-amide]
7.48 | Cc1cc(C)c(Br)c(NC(=O)C2=CNC(=O)CC2c2ccc(F)cc2)c1 (stereo not shown) [Compound 49, 4-(4-Fluoro-phenyl)-6-oxo-1,4,5,6-tetrahydro-pyridine-3-carboxylic acid(2-bromo-3,5-dimethyl-phenyl)-amide]
7.445 | Cc1ccc(C(C)C)cc1NC(=O)C1=CNC(=O)CC1c1cccc(F)c1 (stereo not shown) [Compound 51, 4-(3-Fluoro-phenyl)-6-oxo-1,4,5,6-tetrahydro-pyridine-3-carboxylic acid(5-isopropyl-2-methyl-phenyl)-amide]
6.83 | O=C1CC(c2cccc(F)c2)C(C(=O)Nc2cccc3c2CCCC3)=CN1 (stereo not shown) [Compound 53, 4-(3-Fluoro-phenyl)-6-oxo-1,4,5,6-tetrahydro-pyridine-3-carboxylic acid(5,6,7,8-tetrahydro-naphthalen-1-yl)-amide]
7.535 | Cc1ccc(C)c(NC(=O)C2=CNC(=O)C[C@@H]2c2ccc(F)cc2)c1 [Compound 55, (R)-4-(4-Fluoro-phenyl)-6-oxo-1,4,5,6-tetrahydro-pyridine-3-carboxylic acid (2,5-dimethyl-phenyl)-amide]
